Assay results: patent US5707559A, “Chemiluminescent 1,2-dioxetane compounds” (priority 1987, dated 1998)

Assays:
[1] = Triggering the chemiluminescence of hydroxy-substituted dioxetanes with base; conditions: for base-induced chemiluminescence: base-induced decomposition, room temperature (2b: potassium t-butoxide in o-xylene, 25° C.)
Procedure: (§1) A solution of the dioxetane in a suitable solvent (e.g. o-xylene) was placed in the reaction vial as described above. The vial was placed in the sample holder which was maintained at a temperature such that thermal decomposition of the dioxetane was negligible. Instrument parameters were selected as above and data collection started. A solution of the releasing agent (e.g. base or fluoride) preferably in the reaction solvent was injected by syringe into the rapidly stirred dioxetane solution. The volume of releasing agent added was generally less than 5% of the total volume so that temperature fluctuation of the sample during the time course of the decay was minimal. The pseudo-first order decay was monitored for at least three half-lives.
1. Triggering the Chemiluminescence of Hydroxy-Substituted Dioxetanes with Base: Potassium tert-butoxide induced decomposition of 2b. […].

[2] = Thermal decomposition of dioxetanes monitored by decay of chemiluminescence (activation parameters in xylene); type: physicochemical
Procedure: Rates of dioxetane decomposition were monitored by the decay of chemiluminescence of aerated solutions. A cylindrical Pyrex vial equipped with magnet stir bar was filled with 3-4 mL of the reaction solvent, sealed with a Teflon-lined screw cap and placed in the thermostatted sample block of the chemiluminescence-measuring apparatus (Black Box). Temperature control was provided by an external circulating water bath. Appropriate values for the instrument gain and optical slit size were selected. […]. The vial was sealed with a Teflon-lined screw cap to prevent evaporation when high temperatures were used. Measurement of the signal was begun by opening the shutter. The chemiluminescent decay was generally recorded for at least three half-lives. Calculation of the first-order rate constant, k, from the In(Intensity) vs. time data was performed by a computer program utilizing a standard least-squares treatment. The correlation coefficient, r, was typically at least 0.999 and varied less than 5% between replicate samples. The observed rate was not measurably concentration dependent.
Activation parameters for decomposition of the dioxetanes were calculated from plots of In k vs. 1/T (Arrhenius eq.) or In k/t vs. 1/T (Eyring eq.) by a standard least-squares linear regression analysis.
Activation Energies for Decomposition of Dioxetanes 2 in Xylene.

[3] = for fluoride induced chemiluminescence in polar aprotic solvents: polar aprotic solvents such as acetonitrile
Procedure: as §1
2. Triggering the Chemiluminescence of Silyloxy-Substituted Dioxetanes with Fluorde Ion: Fluoride ion induced decomposition of 2c. […]. […]. A spectrum of the chemiluminescence obtained from the fluoride triggering of 2c in 1:1 aqueous/2-methoxyethanol is shown in FIG. 1 with the solid line. The fluorescence of the cleavage product (methyl 6-hydroxy-2-naphthoate) from the dioxetane is also shown with the dashed line for comparison.

[4] = Triggering properties of further prepared dioxetanes (general statement)
[5] = type: physicochemical; conditions: 0.002M in 2-methoxyethanol, stored at 0° C.
Procedure: (§2) A secondary stock solution of the acetate-protected dioxetane 2e was made by evaporating an aliquot of the methylene chloride stock equivalent to 10 micromoles of dioxetane and dissolving in 5.0 mL of 2-methoxyethanol to give a final concentration of 0.002M. […] Buffer solutions prepared in distilled water were 0.05M phosphate pH 7.6 and 8.0, 0.02M Tris (tris-hydroxymethylaminomethane maleate) pH 7.6, and pH 9.0 phosphate/borate buffer. Aryl esterase (also called carboxylic ester hydrolase (P-5221)) from porcine liver was purchased from Sigma Chemical Co. as a suspension of 11 mg of protein per mL in 3.2M (NH4)2 SO4 solution pH 8.0. Each mg of protein is equivalent to 260 Units, where 1 Unit is defined as the amount which will hydrolyze 1 micromole of ethyl butyrate in 1 minute at pH 8.0, 25° C. […] Injection of 1 μL of (0.26 units) of aryl esterase to the stirred solution caused a chemiluminescent signal to appear. The intensity reached a maximum at about 3 minutes and decayed over a 30 minute period.
Stability of Enzyme and Dioxetane to Reaction Conditions. Many dioxetanes are known to be destroyed via a non-luminescent pathway by acid catalyzed processes in protic solvents. Similarly, amines are also known to cause the catalytic destruction of dioxetanes via an electron-transfer process. […]

[6] = tested on: Aryl esterase (carboxylic ester hydrolase) from porcine liver; test: Enzymatic triggering of chemiluminescence with aryl esterase; type: biochemical; conditions: for effect of added competing esterase substrate on light intensity: […] solution added at maximum emission of 2e, pH 7.6 phosphate buffer, 37° C.
Procedure: as §2
3.) When distilled water was substituted for the Tris buffer, no chemiluminescence signal was observed, but on adding Tris buffer to this solution light emission similar to that above was produced. […] Addition of untreated enzyme preparation to this solution again produced light. […] The emission could be totally extinguished by addition of sufficient SDS. The decrease in light emission is not due to photophysical quenching of the excited state since thermal decomposition in the same solvent system at elevated temperatures results in readily detectable chemiluminescence.
This type of behavior explains the effect of the addition of the known esterase substrates α-naphthyl acetate and β-naphthyl acetate. […] A solution of 25 μL of the dioxetane stock (0.002M) in 3 mL of pH 7.6 phosphate buffer maintained at 37° C. was treated with 5 μL of the enzyme to initiate the chemiluminescence. At the point of maximum emission […] of 0.011M solution of either α- or β-naphthyl acetate were added.

[7] = biological target: T1, Acetylcholinesterase from human erythrocytes (Homo sapiens, UniProt P22303); test: Enzymatic triggering of chemiluminescence with acetylcholinesterase; type: biochemical; conditions: 0.05M phosphate buffer, pH 8.0, 37.0° C.
T1 construct: purchased Sigma Chemical Co. C-3389; host or cells: human erythrocytes
T1 sequence (P22303 other isoform, or with tags, fused parts or gaps): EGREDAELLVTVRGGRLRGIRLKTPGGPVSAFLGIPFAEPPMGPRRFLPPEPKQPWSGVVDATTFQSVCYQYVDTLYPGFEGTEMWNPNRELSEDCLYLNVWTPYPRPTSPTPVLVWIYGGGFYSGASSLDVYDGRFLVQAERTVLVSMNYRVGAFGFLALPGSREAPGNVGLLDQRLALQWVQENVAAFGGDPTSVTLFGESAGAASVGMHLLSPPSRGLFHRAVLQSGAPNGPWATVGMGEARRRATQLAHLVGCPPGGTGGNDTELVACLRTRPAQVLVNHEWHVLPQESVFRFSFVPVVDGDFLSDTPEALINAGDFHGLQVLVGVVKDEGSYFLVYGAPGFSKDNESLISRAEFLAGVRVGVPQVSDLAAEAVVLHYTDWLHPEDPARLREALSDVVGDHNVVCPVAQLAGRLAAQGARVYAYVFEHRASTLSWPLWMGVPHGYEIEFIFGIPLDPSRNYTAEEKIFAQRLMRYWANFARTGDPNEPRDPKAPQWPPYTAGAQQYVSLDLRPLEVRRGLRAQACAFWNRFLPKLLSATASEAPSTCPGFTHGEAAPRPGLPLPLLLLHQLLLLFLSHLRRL
From the text: Acetylcholinesterase, an enzyme of considerable biological significance, hydrolyzes acetylcholine to choline and acetic acid under physiological conditions. It was of interest to determine whether this enzyme would also initiate the chemiluminescent decomposition of the acetyl-protected dioxetane 2e by removal of the acetyl group. Acetylcholinesterase (C-3389) from human erythrocytes was purchased from Sigma Chemical Co. as a lyophilized powder containing phosphate buffer salts. […]. Addition of more dioxetane during this period generated more light.

[8] = tested on: alkaline phosphatase from Bovine Intestinal Mucosa; test: Enzymatic triggering of chemiluminescence with alkaline phosphatase (Type VII-S); type: biochemical; conditions: 2-amino-2-methyl-1-propanol buffer pH 10.3, 1.5M, 37° C., 10 μL enzyme suspension
Procedure: A cuvette containing 3 mL of a buffer solution of 2-amino-2-methyl-l-propanol (Sigma Chemical Co., pH=10.3, 1.5M) was placed in the black box at 37° C. A portion (200 μL) of the dioxetane stock solution (6d in CH2 Cl2) was added to this buffer solution. Subsequent addition of 10 μL of an alkaline phosphatase suspension [Sigma, Type VII-S from Bovine Intestinal Mucosa, suspension in 3.2M (NH4)2 SO4 ] gave rise to chemiluminescence over a period of approximately 2-3 min indicating the enzymatic triggering of the dioxetane.

[9] = 25° C.; cited from earlier work
[10] = 1 μL (0.26 units) aryl esterase, pH 7.6 Tris buffer, 25° C.

## COC1(c2ccc3cc(O)ccc3c2)OOC12C1CC3CC(C1)CC2C3 (stereo not shown) [Dioxetane 2b, 4-(6-Hydroxy-2-naphthyl)-4-methoxyspiro[1,2-dioxetane-3,2'-adamantane]]
[1]
  base-induced chemiluminescence: intense blue chemiluminescence
[1]; methanol with KOH as base, or o-xylene with n-BuLi as base
  base-induced chemiluminescence with other bases: bright blue chemiluminescence with similar decay rates

## COC1(c2ccc3cc(O[Si](C)(C)C(C)(C)C)ccc3c2)OOC12C1CC3CC(C1)CC2C3 (stereo not shown) [Dioxetane 2c]
[2]; decomposition in xylene
  Ea (activation energy for decomposition): 27.0
[3]; 10^-4 M dioxetane, 0.01M tetrabutylammonium fluoride in 2-methoxyethanol, room temperature, pseudo-first order, 100 µM
  half-life of chemiluminescence decay, fluoride ion induced: about 20 minutes
[3]; tetrabutylammonium fluoride in 2-methoxyethanol
  fluoride induced chemiluminescence: Blue chemiluminescence was produced

## COC1(c2ccc3cc(O[Si](c4ccccc4)(c4ccccc4)C(C)(C)C)ccc3c2)OOC12C1CC3CC(C1)CC2C3 (stereo not shown) [Dioxetane 2d]
[4]
  triggering properties: triggering properties similar to dioxetanes 2a-c and 2e
[3]
  fluoride induced chemiluminescence in polar aprotic solvents: bright chemiluminescence

## COC1(c2ccc3cc(OC(C)=O)ccc3c2)OOC12C1CC3CC(C1)CC2C3 (stereo not shown) [Dioxetane 2e, 4-(6-Acetoxy-2-naphthyl)-4-methoxyspiro[1,2-dioxetane-3,2'-adamantane]]
[5]
  stability of stock solution on storage: stable indefinitely
[2]; aliquot injected into 3 mL of o-xylene at 95° C.
  duration of thermal chemiluminescence: persisted for several hours
[6]; [10]
  period over which chemiluminescence decayed: 30 min
  time at which chemiluminescence intensity reached a maximum: about 3 minutes
[6]; 1 μL enzyme in Tris buffer at 25, 37 and 50° C.
  maximum light intensity IMAX versus temperature: increased with increasing temperature
[6]; 3 mL Tris buffer containing 5 μL of 3 M (NH4)2SO4, no enzyme, 25° C.
  chemiluminescence with enzyme medium only: produced no chemiluminescence
[6]; 150 μL (0.3 μmol) dioxetane stock in 3.0 mL pH 7.6 Tris buffer, 25° C., before enzyme
  chemiluminescence signal without enzyme: no chemiluminescence signal was detected
[6]; enzyme heated to 90° C. in Tris buffer and cooled to 25° C.
  chemiluminescence with denatured enzyme: resulted in no chemiluminescence
[7]
  duration of light emission: 20 s

## Oc1ccc2c(c1)C1(OOC13C1CC4CC(C1)CC3C4)c1ccccc1-2 (stereo not shown) [Dioxetane 4a]
[4]
  triggering properties: triggering properties similar to dioxetanes 2a-c and 2e
[1]
  base-induced chemiluminescence: produced chemiluminescence at room temperature

## CC(C)(C)[Si](C)(C)Oc1ccc2c(c1)C1(OOC13C1CC4CC(C1)CC3C4)c1ccccc1-2 (stereo not shown) [Dioxetane 4b, Dispiro[adamantane-2,3'-[1,2]dioxetane-4',9"-(2-tert-butyldimethylsilyloxy-9-fluorene)]]
[3]
  fluoride induced chemiluminescence in polar aprotic solvents: bright chemiluminescence

## Oc1ccc2c(c1)Oc1ccccc1C21OOC12C1CC3CC(C1)CC2C3 (stereo not shown) [Dioxetane 6a]
[4]
  triggering properties: triggering properties similar to dioxetanes 2a-c and 2e
[1]
  base-induced chemiluminescence: produced chemiluminescence at room temperature

## CC(C)(C)[Si](C)(C)Oc1ccc2c(c1)Oc1ccccc1C21OOC12C1CC3CC(C1)CC2C3 (stereo not shown) [Dioxetane 6b]
[4]
  triggering properties: triggering properties similar to dioxetanes 2a-c and 2e
[3]
  fluoride induced chemiluminescence in polar aprotic solvents: bright chemiluminescence

## CC(=O)Oc1ccc2c(c1)Oc1ccccc1C21OOC12C1CC3CC(C1)CC2C3 (stereo not shown) [Dioxetane 6c]
[4]
  triggering properties: triggering properties similar to dioxetanes 2a-c and 2e

## O=P(O)(O)Oc1ccc2c(c1)Oc1ccccc1C21OOC12C1CC3CC(C1)CC2C3 (stereo not shown) [Dioxetane 6d, Dispiro[adamantane-2,3'-[1,2]dioxetane-4',9"-(3-phosphate-9H-xanthene]]
[8]
  period of chemiluminescence after enzyme addition: 2 to 3 min

## COC1(c2cccc(O)c2)OOC12C1CC3CC(C1)CC2C3 (stereo not shown) [Dioxetane 8a]
[1]
  base-induced chemiluminescence: produced chemiluminescence at room temperature

## COC1(c2cccc(O[Si](C)(C)C(C)(C)C)c2)OOC12C1CC3CC(C1)CC2C3 (stereo not shown) [Dioxetane 8b, 4-(3-tert-Butyldimethylsilyloxyphenyl)-4-methoxyspiro[1,2-dioxetane-3,2'-adamantane]]
[3]
  fluoride induced chemiluminescence in polar aprotic solvents: bright chemiluminescence

## Oc1ccc(C23OCCOC2(c2ccccc2)OO3)cc1 (stereo not shown) [deprotonated dioxetane (X=O^-)]
[9]
  decomposition rate relative to protonated form (X=OH): 5.7×10^6 times faster

## CCCCCCCCCCCCOS(=O)(=O)[O-].[Na+] [sodium lauryl sulfate (SDS), sodium lauryl sulfate, reference compound]
[6]; added at maximum emission of 2e, Tris buffer, 1.5 μL enzyme
  effect of enzyme inhibitor on light emission: irreversible decrease in the intensity

## CC(=O)Oc1cccc2ccccc12 [α-naphthyl acetate, reference compound]
[6]
  effect of added competing esterase substrate on light intensity: rapid decrease in light intensity

## CC(=O)Oc1ccc2ccccc2c1 [β-naphthyl acetate, reference compound]
[6]
  effect of added competing esterase substrate on light intensity: rapid decrease in light intensity
